The results in this text go back to patent publication US20210393547A1, “USE OF EMODIN IN TREATING RETINAL ISCHEMIA OR A DISEASE, CONDITION, OR DISORDER ASSOCIATED WITH RETINAL ISCHEMIA” (priority 2020, published 2021).

The subject of one assay is RGC-5 cells. Kind of assay: cells. In kind it is cell-based. To be noted: Mus musculus, RGC5, read-out: Cell viability (% of control). As for the experimental part:
RGC-5 cells have been reported to be not transformed rat RGCs, but rather are mouse retinal neuronal precursor cells. OGD was established by incubating RGC-5 cells in Dulbecco's modified Eagle medium (DMEM; Thermo Fisher Scientific Inc.) without glucose at 37° C. under ischemia simulation conditions, namely 1% O2 (measured using a Penguin Incubator; Astec Company, Kukuoka, Japan), 94% N2 and 5% CO2. Various experimental groups (Table 1) were investigated. […]
Mitochondrial nicotinamide adenine dinucleotide phosphate dependent oxidoreductases are able to reduce MTT to produce formazan and thus increased levels of dark purple formazan that are associated with greater cell viability. […] After shaking, the optical density (OD) of the dissolved formazan was measured using an ELISA plate reader (Synergy H1 Multi-Mode Reader BioTek Instruments) at 562 nm. Cell viability was calculated as the change in OD value compared to the untreated control (100%).
The cultured cells were used to identify the effective dose(s) of the tested agent emodin. The effect of emodin (0.25 and 0.5 μM) on the cultured cells was evaluated utilizing MTT cell viability assays and a cellular ischemia simulation model, namely OGD, for 1 day. […]

The next assay deals with β-catenin. Kind of assay: Western blot of ischemic retina, β-catenin to β-actin ratio. The following applies: n=6, mean±S.E. It is filed as in vivo, rat. As for the experimental part: Emodin was purchased from Sigma-Aldrich (E7881; 90%; storage at 2-8° C.; from Frangula bark; St. Louis, Mo., United States). Drug administration for different procedures, namely ERG, fluorogold RGC labelling, cresyl violet retinal staining and Western blot assays, were described in Tables 3 to 6. Vehicle or emodin (5 μL) was administered via an intravitreous injection route so that these agents were then able to be directly diffused to the target. Emodin was dissolved in vehicle (DMSO:distilled water=1:3). The defined final cellular concentrations of administered drug were 0.25 or 0.5 μM, which were achieved after 40 times dilution from the stock concentrations, namely 10 or 20 μM, based on an arbitrary definition of the vitreous volume as 200 μL. To test a wider range of dose-response, 4 μM of emodin was thus added in the animal experiments. […] Denatured proteins were then obtained using lysis buffer (mammalian protein extraction reagent; […]), the samples were then sonicated and quantified to give equivalent amounts of 30 μg/30 μl/well. […] Finally, the PVDF membranes were then developed using an enhanced chemiluminescent analysis system ([…]) and scanned using an imager (Amersham Imager; LifeSciences); the amount of each protein was quantified according to scanning densitometry.

Regarding `Cc1cc(O)c2c(c1)C(=O)c1cc(O)cc(O)c1C2=O` [emodin, 6-methyl-1,3,8-trihydroxyanthraquinone], the viability at 0.25 µM with RGC-5 cells amounted to 43.8 ± 3.75%. Further, the viability at 0.5 µM in the assay with RGC-5 cells is 47.5 ± 3.99%. The “ratio of β-catenin to β-actin protein level” value with β-catenin (Emo10+IR: pre-ischemic intravitreous 10 μM emodin, Sham normalized to 1, Vehicle+IR 1.64) was 1.18±0.24; with β-catenin (Emo20+IR: pre-ischemic intravitreous 20 μM emodin, P=0.02 vs Vehicle+IR, Sham normalized to 1), 1.00±0.19.
